Three molecules from US11197856B2, “Bicyclic compounds and methods for their use in treating autism” (priority 2013, dated 2021) can be followed below.

The subject of one test is cerebellar explants. The test can be described thus: Cerebellar explants, glutamate/3-nitropropionic acid neurotoxicity. Format: cell-based, Wistar rats. The method, then: Cover slips were placed into a large Petri dish and washed in 70% alcohol for 5 minutes, then washed with Millipore H2O. The cover slips were air dried, and coated with Poly-D-Lysine (1 mg/ml stock solution in PBS, 90-100 μl) for 2 hours at 34° C.
Postnatal day 8 Wistar rats were used for the study. The rats were sacrificed and placed in ice for 1 minute, decapitated and the cerebellum removed and placed on ice. Cerebellum tissue was placed in 1 ml of 0.65% glucose-supplemented PBS (10 μl 65% stock D (+)glucose/1 ml PBS) in a large Petri dish, chopped up into smaller sections and triturated with a 1 ml insulin syringe via a 23 G (0.4 mm) needle, and then squirted back into the glucose solution in the large Petri dish. The tissue was sieved through (125 μm pore size gauze) and centrifuged (2 minutes at 60 g) twice to exchange the medium into serum-free BSA-supplemented START V medium (Biochrom, Germany). The second centrifugation step was done with 1 ml of START V medium. The microexplants were reconstituted into 500 μl of START V medium and put on ice.
Two hours after PDL-coating, the slides were washed with Millipore H2O and air dried. Each slide was placed into a small Petri dish (diameter: 35 mm) and 40 μl of START V/cell suspension was added. The tissue was incubated for 2 hours at 34° C. (settlement period). START V-medium (1 ml) was then added to the Petri dish and cultivated at 34° C. in the presence of 5% CO2 in air at 100% humidity for 48 hours.
For the study, certain explant cultures were exposed to vehicle (PBS) only. In the first study (Study 1) 10 μl of toxin 1 (L-glutamate—100 mM in Millipore water; final concentration; 1 mM) and 10 μl of toxin 2 (3-nitropropionic acid—50 mM—pH 7—in Millipore water, final concentration: 0.5 mM) was applied simultaneously with the drug to be tested ([…]). In each case, the drugs were left in contact with the explants for the duration of the study.
After explants were exposed to drugs for the study period, cells were then rinsed in PBS and then fixed in increasing concentrations of paraformaldehyde (500 μl of 0.4% PFA was applied; then 1.2% PFA; then 3% PFA and finally 4% PFA (each fixation step: 2-3 minutes). Finally, the microexplants were rinsed in PBS.
Neurons in the explants were then evaluated for morphology (presence of neurites) and counted as live cells per microscopic field. Four fields displaying highest cell density were counted per cover slip and the data presented as mean±standard error of the mean (SEM); n=4 each. Statistical significance was evaluated by using the non-paired Student's t-test.

The subject of test [1] is animals with scopolamine-induced memory impairment. The test can be described thus: Morris Water Maze (MWM) test with scopolamine-induced memory impairment. The class given is in vivo, Wistar rats. The conditions noted are these: scopolamine 0.3 mg/kg i.p.; day 4 of acquisition. From the text:
The first part of the study involved acute testing of cG-2-AllylP in the Morris Water Maze Memory (MWM) model. The MWM test is one of the most frequently used tests for assessing spatial memory in rats and is well recognized to accurately predict effects of disease and treatment on spatial memory generally. Therefore, the MWM test reflects effects of disease and treatment in human subjects. The standard procedure for MWM was followed. We used a circular swimming pool (80 cm depth×150 cm diameter) filled with opaque water, with the temperature maintained at 20° C. […] On days 1-4 of the experiment rats underwent memory acquisition trials with 6 trials (60 seconds each) in each day of testing (habituation phase). Latency to reach the platform was recorded and the daily reduction of average latency was used to measure the capability to learn where the hidden platform was. […] Experimental groups are detailed in the Table 4 below. On […], the probe MWM test was performed with the platform removed. There were 6 trials, each of maximum duration of 60s, at least 3 min rest between trials). […] Data was collected and analysed using Any-maze (v4.2) software. The data generated from behavioural tests was analysed using one-way ANOVA for determining the difference between the aged-groups. […]

Turning to `C[C@@]12CCCN1C(=O)C1(CCCC1)NC2=O` [Cyclic cyclopentyl-G-2MeP, (8aS)-Methyl-spiro[cyclopentane-1,3(4H)-tetrahydropyrrolo[1,2-a]pyrazine]-1,4(2H)-dione], the “numbers of cells having neurites” value in the test with cerebellar explants (administered simultaneously with glutamate) was “significantly increased the number of cells having neurites”. Besides, in the test on cerebellar explants (low doses (cG-2-AllylP: 100 pm to 10 nm)), the glutamate-induced neurotoxicity entry was “significant decrease in glutamate-induced neurotoxicity”.
As to `N[C@@H](CCC(=O)O)C(=O)O` [Glutamate, L-glutamate, reference compound], in the test with cerebellar explants (glutamate 1 mM vs vehicle-treated controls), the “loss of cerebellar neurons having neurites” value is recorded as about 85%.
As to `CN1[C@@H]2C[C@@H](OC(=O)[C@H](CO)c3ccccc3)C[C@H]1[C@@H]1O[C@@H]12` [scopolamine, reference compound], the time to platform result in test [1] is recorded as “approximately 208 % of control”.
